# Experiments:
# [1] = Blood to plasma partitioning; format: in vitro ADME, human; conditions: 37 °C; for blood plasma ratio at 1000 ng/mL: human, whole blood, pH 7.4, human whole blood, read-out: B/P (whole blood to plasma partitioning ratio); for B/P (whole blood to plasma partitioning ratio): human whole blood
# Protocol: Human whole blood was collected and supplied by the Volunteer Blood Donor Registry (Clinical Translation Centre, Walter & Eliza Hall Institute of Medical Research, Parkville, Australia) and used on the day of collection. The haematocrit (Hct) was determined by centrifugation (13,000×g for 3 min using Clemets® Microhaematocrit centrifuge and Safecap® Plain Self-sealing Mylar wrapped capillary tubes) to ensure it was between 0.40 and 0.48. An aliquot was centrifuged (Heraeus, Multifuge 3 S-R; 4500×g) for 10 min to obtain plasma required for matrix matching purposes as described below.
# Two aliquots of the spiked whole blood were transferred to fresh microcentrifuge tubes and maintained at 37 °C/5% CO2 in a humidified incubator. The pH was confirmed to be 7.4 ± 0.1 at the start and end of the incubation. At each time point (30 min and 4 h), one whole blood tube was removed from the incubator and mixed by gentle inversion, after which four replicate blood samples were taken and matrix matched with an equal volume of blank plasma. The remainder of the blood sample was centrifuged (Eppendorf, Mini Spin plus; 6700×g) for 2 min for the collection of 4 replicate plasma samples which were similarly matrix matched with an equal volume of blank whole blood. The 1:1 mixtures of blood/plasma were mixed, snap frozen in dry ice and stored at − 80 °C until analysis by LC–MS (Additional file 1: Table S2) against calibration standards prepared in the same mixed matrix. Any further distribution of compound into RBCs at this stage was irrelevant as the cells were lysed during the sample preparation and the total concentration in the mixed matrix was measured for both the calibration standards and samples.
# The apparent whole blood-to-plasma partitioning ratio (B/P) was calculated as the ratio of the average concentration in the blood sample to that in the plasma fraction of the same whole blood sample. A standard deviation (SD) for each B/P value was calculated using the propagation of errors approach as described previously.
# [2] = biological target: T1, CYP1A2 (Homo sapiens, UniProt P05177); test: Cytochrome P450 inhibition in human liver microsomes; conditions: for inhibition at 20 µM: human, pH 7.4
# T1 sequence (P05177 1-516): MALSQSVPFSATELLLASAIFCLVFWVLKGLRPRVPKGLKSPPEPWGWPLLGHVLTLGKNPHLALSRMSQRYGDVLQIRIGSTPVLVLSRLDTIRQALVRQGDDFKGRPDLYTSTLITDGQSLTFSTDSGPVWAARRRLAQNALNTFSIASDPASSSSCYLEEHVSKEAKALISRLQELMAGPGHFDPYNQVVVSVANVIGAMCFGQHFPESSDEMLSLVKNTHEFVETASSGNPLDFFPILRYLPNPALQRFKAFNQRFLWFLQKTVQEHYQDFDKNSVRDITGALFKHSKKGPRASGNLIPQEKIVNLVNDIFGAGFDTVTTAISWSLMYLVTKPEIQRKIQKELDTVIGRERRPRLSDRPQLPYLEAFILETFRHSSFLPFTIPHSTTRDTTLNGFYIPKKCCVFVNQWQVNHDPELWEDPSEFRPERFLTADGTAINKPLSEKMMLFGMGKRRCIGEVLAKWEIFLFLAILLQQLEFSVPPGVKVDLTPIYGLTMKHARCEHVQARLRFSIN
# Outline: (§1)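 Activity of each isoform followed via a specific probe-substrate metabolite formed in human liver microsomes; reactions quenched with ice-cold acetonitrile and metabolite measured by LC–MS. Percent inhibition taken versus metabolite formation without inhibitor; Km from metabolite formation rate (pmol/min/mg protein) across substrate concentrations.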
# [3] = biological target: CYP2C19 (Homo sapiens, UniProt P33261); test: as above
# Outline: as §1
# [4] = biological target: CYP2C9 (Homo sapiens, UniProt P11712); test: as above
# Outline: as §1
# [5] = biological target: CYP3A4 (Homo sapiens, UniProt P08684); test: as above; conditions: for inhibition at 20 µM: human, pH 7.4, CYP3A4 (midaz) % inhibition at max conc
# Outline: as §1
# [6] = system: human plasma; conditions: methods UF, ED, EP or not described per compound, ref [6]–[22] of Additional file 1; cited from earlier work
# [7] = system: Caco-2 cell monolayers; test: Bidirectional permeability across Caco-2 cell monolayers; conditions: for efflux ratio: mean B–A/A–B Papp
# Outline: (§2)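 Donor and acceptor concentrations measured by LC–MS to give Papp, mass balance and efflux ratio (mean B–A over A–B Papp). Media were pH 7.4 HEPES-buffered HBSS or human plasma on both sides; for plasma, Papp used the donor fraction unbound. Donor contained 0.1% v/v DMSO.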
# [8] = physchem; conditions: for An (absorption number): Peff × tres/R, minimum 1; for Ssi (estimated solubility in the small intestine): based on measured FaSSIF solubility; for Permeability classification: based on ref 80 and control compounds; for Predicted human Peff: from Caco-2 Papp via calibration plot; for solubility: FaSSIF
# Text: Predicted Peff values were obtained from a calibration plot of literature Peff values vs measured Caco-2 Papp using either buffer or plasma as the transport medium (see Results section).
# [9] = Bidirectional permeability across Caco-2 cell monolayers; conditions: human; for Papp A→B: Caco-2, A–B Papp, matrix: human plasma, corrected for fu
# Outline: as §2
# [10] = CYP3A4 (midaz) IC50, human liver microsomes, CYP3A4 (midaz), highest concentration tested 20 µM
# [11] = matrix: human plasma, corrected for fu
# [12] = CYP3A4 (test) IC50, human liver microsomes, CYP3A4 (test), highest concentration tested 20 µM
# CYP2C19, sequence (P33261 whole entry): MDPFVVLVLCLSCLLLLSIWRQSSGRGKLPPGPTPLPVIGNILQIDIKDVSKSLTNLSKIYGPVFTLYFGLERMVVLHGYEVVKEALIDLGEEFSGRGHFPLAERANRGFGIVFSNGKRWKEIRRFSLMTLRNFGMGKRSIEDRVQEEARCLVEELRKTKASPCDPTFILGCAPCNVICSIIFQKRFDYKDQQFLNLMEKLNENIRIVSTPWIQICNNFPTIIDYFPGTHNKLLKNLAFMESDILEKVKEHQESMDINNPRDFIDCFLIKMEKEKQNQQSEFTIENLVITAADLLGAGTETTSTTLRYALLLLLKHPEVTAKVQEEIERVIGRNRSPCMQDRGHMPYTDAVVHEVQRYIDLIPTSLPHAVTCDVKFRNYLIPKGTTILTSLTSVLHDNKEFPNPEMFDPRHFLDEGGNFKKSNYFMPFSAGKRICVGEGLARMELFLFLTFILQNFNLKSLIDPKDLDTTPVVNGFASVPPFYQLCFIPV
# CYP3A4, sequence (P08684 whole entry): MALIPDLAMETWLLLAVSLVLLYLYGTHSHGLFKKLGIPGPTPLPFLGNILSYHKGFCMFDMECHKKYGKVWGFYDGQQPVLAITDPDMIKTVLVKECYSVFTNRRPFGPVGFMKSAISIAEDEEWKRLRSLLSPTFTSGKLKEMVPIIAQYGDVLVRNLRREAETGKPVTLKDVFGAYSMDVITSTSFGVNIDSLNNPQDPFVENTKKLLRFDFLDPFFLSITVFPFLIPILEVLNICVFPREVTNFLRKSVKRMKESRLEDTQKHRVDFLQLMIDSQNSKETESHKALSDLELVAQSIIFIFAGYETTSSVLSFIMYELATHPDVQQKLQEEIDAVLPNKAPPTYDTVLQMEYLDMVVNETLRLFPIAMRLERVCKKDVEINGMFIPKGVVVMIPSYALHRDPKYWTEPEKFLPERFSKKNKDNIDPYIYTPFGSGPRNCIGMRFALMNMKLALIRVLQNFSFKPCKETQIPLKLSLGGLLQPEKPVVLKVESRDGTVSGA
# CYP2C9, sequence (P11712 whole entry): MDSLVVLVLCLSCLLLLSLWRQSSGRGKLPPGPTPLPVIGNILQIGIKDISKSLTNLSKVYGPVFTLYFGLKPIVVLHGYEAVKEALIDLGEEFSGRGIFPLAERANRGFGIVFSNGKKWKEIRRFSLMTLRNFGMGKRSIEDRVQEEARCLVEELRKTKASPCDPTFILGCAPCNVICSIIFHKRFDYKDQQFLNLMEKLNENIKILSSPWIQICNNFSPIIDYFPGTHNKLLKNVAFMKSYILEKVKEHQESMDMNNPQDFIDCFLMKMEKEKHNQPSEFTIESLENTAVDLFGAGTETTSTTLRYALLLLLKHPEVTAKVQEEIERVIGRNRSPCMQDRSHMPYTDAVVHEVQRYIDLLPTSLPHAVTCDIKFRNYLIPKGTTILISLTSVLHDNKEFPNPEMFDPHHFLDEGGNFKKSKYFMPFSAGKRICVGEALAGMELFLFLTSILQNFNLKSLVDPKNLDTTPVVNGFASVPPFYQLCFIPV
SMILES,blood plasma ratio at 1000 ng/mL [1],IC50 [2],CYP1A2 % inhibition at max conc ([2]; microsomes),IC50 [3],CYP2C19 % inhibition at max conc ([3]; microsomes),IC50 [4],CYP2C9 % inhibition at max conc ([4]; microsomes),"IC50 [5, 10]",CYP3A4 (midaz) % inhibition at max conc ([5]; microsomes),Literature fu [6],"A–B Papp [7, 11]","B–A Papp [7, 11]",An (absorption number) [8],Ssi (estimated solubility in the small intestine) [8],Permeability classification [8],Predicted human Peff [8],B/P (whole blood to plasma partitioning ratio) [1],IC50 ([2]; microsomes),IC50 ([3]; microsomes),CYP3A4 (test) % inhibition at max conc ([5]; microsomes),other results
CCNCc1cc(Nc2ccnc3cc(Cl)ccc23)ccc1O [Desethylamodiaquine],3.26 ± 0.35,> 18 µM,nmi,> 18 µM,nmi,> 18 µM,nmi,> 18 µM,nmi,0.18,,,,,,,,,,,
COc1cc2[nH]c(C)c(-c3ccc(Oc4ccc(OC(F)(F)F)cc4)cc3)c(=O)c2cc1Cl [ELQ300],,,nmi,,41%,,,,,,> 300 10^−6 cm/s,> 300 10^−6 cm/s,13,0.520 µg/mL,High (> 85% absorption (high)),11 10^−4 cm/s,0.53 ± 0.05,> 20 µM,> 20 µM,nmi,SLAD [8]: 3 mg; IC50 ([4]; microsomes): 7.5 µM; Ki ([4]; microsomes): 5.4 µM; IC50 ([5]; microsomes): > 20 µM
CN(C)C[c-]1cccc1CNc1ccnc2cc(Cl)ccc12.[Fe+2].c1cc[cH-]c1 (stereo not drawn) [Ferroquine],,,nmi,,nmi,,nmi,,,,32 ± 6.8 10^−6 cm/s,24 ± 4.1 10^−6 cm/s,2.7,320 µg/mL,High (> 85% absorption (high)),2.2 10^−4 cm/s,1.6 ± 0.15,> 20 µM,> 20 µM,42%,efflux ratio ([7]; matrix: human plasma): 0.8; SLAD ([8]; Ssi × V (500 mL) × Mp): 426 mg; IC50 ([4]; microsomes): > 20 µM; Ki ([5]; microsomes): 5.2 µM
CCCCN(CCCC)CC(O)c1cc(Cl)cc2c1-c1ccc(Cl)cc1/C2=C/c1ccc(Cl)cc1 (stereo not drawn) [Lumefantrine],0.48 ± 0.09,> 20 µM,nmi,> 20 µM,nmi,> 20 µM,nmi,> 20 µM,nmi,0.003,,,,,,,,,,nmi,"IC50 [5, 12]: > 20 µM"
COc1cc(N[C@H](C)CCCN)c2nccc(C)c2c1Oc1ccc(Cl)c(Cl)c1 [NPC1161B],,,,,,,37%,,37%,,> 300 10^−6 cm/s,> 300 10^−6 cm/s,,,,,1.09 ± 0.07,6.5 µM,9.6 µM,,Ki ([2]; microsomes): 3.8 µM; Ki ([3]; microsomes): 5.7 µM; IC50 ([4]; microsomes): > 20 µM; Ki ([5]; microsomes): 8.2 µM
CCc1nc(N)nc(N)c1OCCCOc1ccccc1CCC(=O)O.Cl [P218],,,nmi,,nmi,,nmi,,nmi,,,,1.0,408 µg/mL,Low (< 50% absorption (low)),0.24 10^−4 cm/s,0.56 ± 0.03,> 20 µM,> 20 µM,nmi,B–A Papp ([7]; matrix: pH 7.4 buffer): 15 ± 1.7 10^−6 cm/s; efflux ratio ([7]; matrix: pH 7.4 buffer): 21; SLAD [8]: 204 mg; IC50 ([4]; microsomes): > 20 µM; IC50 ([5]; microsomes): > 20 µM
Clc1ccc2c(N3CCN(CCCN4CCN(c5ccnc6cc(Cl)ccc56)CC4)CC3)ccnc2c1 [Piperaquine],0.57 ± 0.05,> 20 µM,nmi,> 20 µM,nmi,,,4.5 µM,,< 0.001,,,13,,High (> 85% absorption (high)),11 10^−4 cm/s,,,,nmi,"solubility [8]: 103 µg/mL; SLAD ([8]; Ssi × V (500 mL) × Mp): 685 mg; Ki ([5]; CYP3A4 (midaz) Ki, human liver microsomes, CYP3A4 (midaz)): 3.2 µM; IC50 [5, 12]: > 20 µM"
COc1ccc2nc3cc(Cl)ccc3c(Nc3cc(CN4CCCC4)c(O)c(CN4CCCC4)c3)c2n1 [Pyronaridine],9 ± 0.83,> 20 µM,,> 20 µM,nmi,> 20 µM,nmi,> 20 µM,,< 0.35,,,1.6,,High (> 85% absorption (high)),1.4 10^−4 cm/s,,,,nmi,"Papp B→A ([9]; Caco-2): 41 ± 3 ×10⁻⁶ cm/s; efflux ratio ([9]; Caco-2): 2.6; Papp A→B [9]: 16 ± 2.2 ×10⁻⁶ cm/s; solubility [8]: > 2000 µg/mL; SLAD ([8]; Ssi × V (500 mL) × Mp): > 1610 mg; inhibition at 20 µM ([2]; microsomes): 30%; IC50 [5, 12]: > 20 µM; inhibition at 20 µM ([5]; microsomes): 28%"
CS(=O)(=O)O.FC1CCN(CCOc2ccc(C3CCC4(CC3)OOC3(OO4)C4CC5CC(C4)CC3C5)cc2)CC1 (stereo not drawn) [TDD-E209],,,,,,,,,,,> 300 10^−6 cm/s,> 300 10^−6 cm/s,13,87.0 µg/mL,High (> 85% absorption (high)),11 10^−4 cm/s,0.51 ± 0.08,,,,SLAD [8]: 579 mg
COc1cc(C)c2c(Oc3cccc(C(F)(F)F)c3)c(OC)cc(NC(C)CCCN)c2n1 (stereo not drawn) [Tafenoquine],1.3 ± 0.04,> 20 µM,,> 20 µM,,14 µM,,> 20 µM,,< 0.005,,,13,,High (> 85% absorption (high)),11 10^−4 cm/s,,,,,"Papp A→B [9]: > 300 ×10⁻⁶ cm/s; solubility [8]: 15.8 µg/mL; SLAD ([8]; Ssi × V (500 mL) × Mp): 105 mg; inhibition at 20 µM ([2]; microsomes): 20%; inhibition at 20 µM ([3]; human, microsomes, pH 7.4): 42%; Ki [4]: 10 µM; IC50 [5, 12]: 3.8 µM; Ki ([5]; CYP3A4 (test) Ki, human liver microsomes, CYP3A4 (test)): 2.3 µM; inhibition at 20 µM ([5]; microsomes): 40%"

# Source: paper PMC6941357, “An in vitro toolbox to accelerate anti-malarial drug discovery and development” (Malaria Journal, 2020)
